Source: article PMC5218480 (PLoS ONE, 2017)

Test system: MV-4-11 cells
Assay: Gene expression microarray analysis (Affymetrix PrimeView) and GSEA
Format: cell-based, human
Set-up: RFU PODN (11730768_x_at) / Fold change /veh PODN (11730768_x_at) / RFU LINC00158 (11744669_a_at) / Fold change /veh LINC00158 (11744669_a_at) / RFU DUSP10 (11751237_a_at) / Fold change /veh DUSP10 (11751237_a_at) / RFU ID3 (11757404_x_at) / Fold change /veh ID3 (11757404_x_at) / RFU PLEKHG5 (11737974_s_at) / Fold change /veh PLEKHG5 (11737974_s_at) / RFU LRRC4B (11730491_at) / Fold change /veh LRRC4B (11730491_at) / RFU GIMAP4 (11747438_a_at) / Fold change /veh GIMAP4 (11747438_a_at) / RFU KRT8 (11758183_x_at) / Fold change /veh KRT8 (11758183_x_at) / RFU CNN1 (11734310_a_at) / Fold change /veh CNN1 (11734310_a_at) / RFU VPS37D (11726825_at) / Fold change /veh VPS37D (11726825_at) / RFU C10orf10 (11716522_x_at) / Fold change /veh C10orf10 (11716522_x_at) / RFU KIR2DL2 /// KIR2DL4 /// KIR2DL5A /// KIR2DL5B /// KIR2DS1 /// KIR2DS2 /// KIR2DS3 /// KIR2DS4 /// KIR3DL3 /// KIR3DL3 /// KIR3DS1 (11738374_at) / Fold change /veh KIR2DL2 /// KIR2DL4 /// KIR2DL5A /// KIR2DL5B /// KIR2DS1 /// KIR2DS2 /// KIR2DS3 /// KIR2DS4 /// KIR3DL3 /// KIR3DL3 /// KIR3DS1 (11738374_at) / RFU C1QL1 (11718748_at) / Fold change /veh C1QL1 (11718748_at) / RFU TMPRSS4 (11747572_a_at) / Fold change /veh TMPRSS4 (11747572_a_at) / RFU HAMP (11756126_x_at) / Fold change /veh HAMP (11756126_x_at) / RFU RNFT2 (11725882_a_at) / Fold change /veh RNFT2 (11725882_a_at) / RFU NR4A2 (11747474_a_at) / Fold change /veh NR4A2 (11747474_a_at) / RFU ABCC12 (11746883_a_at) / Fold change /veh ABCC12 (11746883_a_at) / RFU TMEM136 (11760407_x_at) / Fold change /veh TMEM136 (11760407_x_at) / RFU CLDN22 /// WWC2 (11732394_at) / Fold change /veh CLDN22 /// WWC2 (11732394_at) / RFU HLA-DPB1 (11760878_x_at) / Fold change /veh HLA-DPB1 (11760878_x_at) / RFU SPINT1 (11716480_a_at) / Fold change /veh SPINT1 (11716480_a_at) / RFU GAP43 (11754022_s_at) / Fold change /veh GAP43 (11754022_s_at) / RFU A4GNT (11735810_at) / Fold change /veh A4GNT (11735810_at) / RFU PRB3 (11715151_x_at) / Fold change /veh PRB3 (11715151_x_at) / RFU TUBB4B (11761932_at) / Fold change /veh TUBB4B (11761932_at) / RFU CAPN14 (11732068_a_at) / Fold change /veh CAPN14 (11732068_a_at) / RFU TMCC2 (11721928_a_at) / Fold change /veh TMCC2 (11721928_a_at) / RFU IRGQ (11745062_a_at) / Fold change /veh IRGQ (11745062_a_at) / RFU FAM174B (11720279_a_at) / Fold change /veh FAM174B (11720279_a_at) / RFU TMPRSS4 (11748680_a_at) / Fold change /veh TMPRSS4 (11748680_a_at) / RFU FAM212B (11763350_a_at) / Fold change /veh FAM212B (11763350_a_at) / RFU PLEKHG5 (11743358_a_at) / Fold change /veh PLEKHG5 (11743358_a_at) / RFU ZSCAN30 (11745921_a_at) / Fold change /veh ZSCAN30 (11745921_a_at) / RFU CMKLR1 (11741424_a_at) / Fold change /veh CMKLR1 (11741424_a_at) / RFU LOC101060620 /// MAPK8IP1 (11723275_at) / Fold change /veh LOC101060620 /// MAPK8IP1 (11723275_at) / RFU SPTSSB (11747773_x_at) / Fold change /veh SPTSSB (11747773_x_at) / RFU PRSS12 (11739890_at) / Fold change /veh PRSS12 (11739890_at) / RFU BIN1 (11741810_x_at) / Fold change /veh BIN1 (11741810_x_at) / RFU WNT11 (11732464_a_at) / Fold change /veh WNT11 (11732464_a_at) / RFU C10orf10 (11716521_a_at) / Fold change /veh C10orf10 (11716521_a_at) / RFU C5orf56 (11738089_at) / Fold change /veh C5orf56 (11738089_at) / RFU CYB561 (11721691_x_at) / Fold change /veh CYB561 (11721691_x_at) / RFU ANKRD19P (11752326_a_at) / Fold change /veh ANKRD19P (11752326_a_at) / RFU OR2T12 /// OR2T33 /// OR2T8 (11738714_s_at) / Fold change /veh OR2T12 /// OR2T33 /// OR2T8 (11738714_s_at) / RFU VCAN (11748164_a_at) / Fold change /veh VCAN (11748164_a_at) / RFU JSRP1 (11732532_at) / Fold change /veh JSRP1 (11732532_at) / RFU KRTAP10-11 (11738290_x_at) / Fold change /veh KRTAP10-11 (11738290_x_at) / RFU MYO3A (11730013_a_at) / Fold change /veh MYO3A (11730013_a_at) / RFU EBF3 (11725865_a_at) / Fold change /veh EBF3 (11725865_a_at) / RFU CAMK2N1 (11719241_x_at) / Fold change /veh CAMK2N1 (11719241_x_at) / RFU C5orf56 (11738088_a_at) / Fold change /veh C5orf56 (11738088_a_at) / RFU OLFML3 (11715873_a_at) / Fold change /veh OLFML3 (11715873_a_at) / RFU LOC100653217 /// NTM (11731650_a_at) / Fold change /veh LOC100653217 /// NTM (11731650_a_at) / RFU MAPK11 (11762145_a_at) / Fold change /veh MAPK11 (11762145_a_at) / RFU FIZ1 (11724087_x_at) / Fold change /veh FIZ1 (11724087_x_at) / RFU OASL (11726364_x_at) / Fold change /veh OASL (11726364_x_at) / RFU SOX15 (11748057_x_at) / Fold change /veh SOX15 (11748057_x_at) / RFU CD79A (11719716_a_at) / Fold change /veh CD79A (11719716_a_at) / RFU HIST1H1D (11736915_at) / Fold change /veh HIST1H1D (11736915_at) / RFU CASKIN2 (11723855_a_at) / Fold change /veh CASKIN2 (11723855_a_at) / RFU LOC730098 (11760151_x_at) / Fold change /veh LOC730098 (11760151_x_at) / RFU OR4N2 (11742367_at) / Fold change /veh OR4N2 (11742367_at) / RFU PRRT2 (11749266_a_at) / Fold change /veh PRRT2 (11749266_a_at) / RFU SNX32 (11753110_a_at) / Fold change /veh SNX32 (11753110_a_at) / RFU CDHR5 (11726645_a_at) / Fold change /veh CDHR5 (11726645_a_at) / RFU RCAN1 (11760418_a_at) / Fold change /veh RCAN1 (11760418_a_at) / RFU FAM167A (11723789_a_at) / Fold change /veh FAM167A (11723789_a_at) / RFU FAM26E (11764081_at) / Fold change /veh FAM26E (11764081_at) / RFU ISYNA1 (11749810_s_at) / Fold change /veh ISYNA1 (11749810_s_at) / RFU ACY1 (11761880_at) / Fold change /veh ACY1 (11761880_at) / RFU 11764098_at / Fold change /veh 11764098_at / RFU SAMD14 (11745864_x_at) / Fold change /veh SAMD14 (11745864_x_at) / RFU NPB (11741838_a_at) / Fold change /veh NPB (11741838_a_at) / RFU TMPRSS6 (11731388_a_at) / Fold change /veh TMPRSS6 (11731388_a_at) / RFU KRTAP10-2 (11738614_at) / Fold change /veh KRTAP10-2 (11738614_at) / RFU ARHGAP8 /// PRR5-ARHGAP8 (11727945_x_at) / Fold change /veh ARHGAP8 /// PRR5-ARHGAP8 (11727945_x_at) / RFU KRTAP5-7 /// NADSYN1 (11734609_at) / Fold change /veh KRTAP5-7 /// NADSYN1 (11734609_at) / RFU RASL12 (11751679_a_at) / Fold change /veh RASL12 (11751679_a_at) / RFU CDKN2B (11736163_a_at) / Fold change /veh CDKN2B (11736163_a_at) / RFU PRF1 (11729649_at) / Fold change /veh PRF1 (11729649_at) / RFU, ZNF638 /// ZNF638-IT1 / Fold change vs veh, ZNF638 /// ZNF638-IT1 / RFU, PANK3 / Fold change vs veh, PANK3 / RFU, SH3YL1 / Fold change vs veh, SH3YL1 / RFU, ZEB2 / Fold change vs veh, ZEB2 / RFU, NRIP1 / Fold change vs veh, NRIP1 / RFU, PTTG1IP / Fold change vs veh, PTTG1IP / RFU, CAPN2 / Fold change vs veh, CAPN2 / RFU, MED14 / Fold change vs veh, MED14 / RFU, SNORA58 / Fold change vs veh, SNORA58 / RFU, C1orf63 / Fold change vs veh, C1orf63 / RFU, LRRFIP1 / Fold change vs veh, LRRFIP1 / RFU, NDUFAF7 / Fold change vs veh, NDUFAF7 / RFU, SLC12A2 / Fold change vs veh, SLC12A2 / RFU, IBTK / Fold change vs veh, IBTK / RFU, ESF1 / Fold change vs veh, ESF1 / Fold change vs veh, TMEM50B / RFU, TAOK1 / Fold change vs veh, TAOK1 / RFU, ACBD3 / Fold change vs veh, ACBD3 / RFU, TMA16 / Fold change vs veh, TMA16 / RFU, RWDD3 / Fold change vs veh, RWDD3 / RFU, BCAT1 / Fold change vs veh, BCAT1 / RFU, EDEM3 / Fold change vs veh, EDEM3 / RFU, TMEM33 / Fold change vs veh, TMEM33 / RFU, WDR75 / Fold change vs veh, WDR75 / RFU, AHCTF1 / Fold change vs veh, AHCTF1 / RFU, TFRC / Fold change vs veh, TFRC / RFU, ZDHHC17 / Fold change vs veh, ZDHHC17 / RFU, NOM1 / Fold change vs veh, NOM1 / RFU, ARL8B / Fold change vs veh, ARL8B / RFU, ZBTB11 / Fold change vs veh, ZBTB11 / RFU, TAMM41 / Fold change vs veh, TAMM41 / RFU, KIAA1704 /// LOC100996395 / Fold change vs veh, KIAA1704 /// LOC100996395 / RFU, ING1 / Fold change vs veh, ING1 / RFU, TRMT61B / Fold change vs veh, TRMT61B / RFU, FUBP3 / Fold change vs veh, FUBP3 / RFU, TP53 / Fold change vs veh, TP53 / RFU, TNKS2 / Fold change vs veh, TNKS2 / RFU, ZFP14 / Fold change vs veh, ZFP14 / RFU, ACTR2 / Fold change vs veh, ACTR2 / RFU, PPP3R1 / Fold change vs veh, PPP3R1 / RFU, PIK3R1 / Fold change vs veh, PIK3R1 / RFU, HNRNPA1 / Fold change vs veh, HNRNPA1 / RFU, RNF170 / Fold change vs veh, RNF170 / RFU, ZNF28 / Fold change vs veh, ZNF28 / RFU, RNGTT / Fold change vs veh, RNGTT / RFU, OGT / Fold change vs veh, OGT / RFU, BRD1 / Fold change vs veh, BRD1 / RFU, MARS / Fold change vs veh, MARS / RFU, ZNF655 / Fold change vs veh, ZNF655 / RFU, FAHD1 / Fold change vs veh, FAHD1 / RFU, BDP1 / Fold change vs veh, BDP1 / RFU, LRRCC1 / Fold change vs veh, LRRCC1 / RFU, ARID1A / Fold change vs veh, ARID1A / RFU, ZNF146 / Fold change vs veh, ZNF146 / RFU, ZNF330 / Fold change vs veh, ZNF330 / RFU, GPN3 / Fold change vs veh, GPN3 / RFU, C9orf123 / Fold change vs veh, C9orf123 / RFU, N4BP2L2 / Fold change vs veh, N4BP2L2 / RFU, ARFIP1 / Fold change vs veh, ARFIP1 / RFU, FAM179B / Fold change vs veh, FAM179B / RFU, BCL10 / Fold change vs veh, BCL10 / RFU, UHRF1BP1L / Fold change vs veh, UHRF1BP1L / RFU, BET1 / Fold change vs veh, BET1 / RFU, CNOT2 / Fold change vs veh, CNOT2 / RFU, ZNF268 / Fold change vs veh, ZNF268 / Fold change vs veh, ZNF507 / RFU, DGCR2 / Fold change vs veh, DGCR2 / RFU, WDSUB1 / Fold change vs veh, WDSUB1 / Fold change vs veh, HSP90B1 /// MIR3652 / RFU, ADSS / Fold change vs veh, ADSS / RFU, GK / Fold change vs veh, GK / RFU, ZNF148 / Fold change vs veh, ZNF148 / RFU, TAF9 / Fold change vs veh, TAF9 / RFU, SLC1A5 / Fold change vs veh, SLC1A5 / RFU, SLMO2 / Fold change vs veh, SLMO2 / RFU, ABCC4 / Fold change vs veh, ABCC4 / RFU, LOC101060439 /// RAP1B / Fold change vs veh, LOC101060439 /// RAP1B / RFU, RFX7 / Fold change vs veh, RFX7 / RFU, GTPBP10 / Fold change vs veh, GTPBP10 / RFU, CNEP1R1 / Fold change vs veh, CNEP1R1 / RFU, BIVM-ERCC5 /// ERCC5 / Fold change vs veh, BIVM-ERCC5 /// ERCC5 / RFU, ILF3 / Fold change vs veh, ILF3 / RFU 11762660_at / Fold change /veh 11762660_at / RFU VCAN (11757783_s_at) / Fold change /veh VCAN (11757783_s_at) / RFU DDX43 (11728927_at) / Fold change /veh DDX43 (11728927_at) / RFU KRT8 (11758188_x_at) / Fold change /veh KRT8 (11758188_x_at) / RFU NKD1 (11759106_at) / Fold change /veh NKD1 (11759106_at) / RFU SRD5A1 (11742802_a_at) / Fold change /veh SRD5A1 (11742802_a_at) / RFU TPSAB1 /// TPSB2 (11721975_s_at) / Fold change /veh TPSAB1 /// TPSB2 (11721975_s_at) / RFU GSTM3 (11746129_a_at) / Fold change /veh GSTM3 (11746129_a_at) / RFU IL23R (11737362_x_at) / Fold change /veh IL23R (11737362_x_at) / RFU TMEM51 (11727254_a_at) / Fold change /veh TMEM51 (11727254_a_at) / RFU PIWIL2 (11732686_x_at) / Fold change /veh PIWIL2 (11732686_x_at) / RFU ORM1 (11744905_x_at) / Fold change /veh ORM1 (11744905_x_at) / RFU CCDC152 (11743942_at) / Fold change /veh CCDC152 (11743942_at) / RFU ECM1 (11717891_a_at) / Fold change /veh ECM1 (11717891_a_at) / RFU IL23R (11748794_a_at) / Fold change /veh IL23R (11748794_a_at) / RFU TNFAIP8L3 (11732012_x_at) / Fold change /veh TNFAIP8L3 (11732012_x_at) / RFU MBOAT4 (11741988_at) / Fold change /veh MBOAT4 (11741988_at) / RFU 11764193_at / Fold change /veh 11764193_at / RFU TMEM53 (11763286_at) / Fold change /veh TMEM53 (11763286_at) / RFU MAGEB2 (11727129_at) / Fold change /veh MAGEB2 (11727129_at) / RFU TMEM200A (11744735_a_at) / Fold change /veh TMEM200A (11744735_a_at) / RFU CCDC152 (11751479_a_at) / Fold change /veh CCDC152 (11751479_a_at) / RFU FAM211A (11726209_a_at) / Fold change /veh FAM211A (11726209_a_at) / RFU RGS16 (11746705_a_at) / Fold change /veh RGS16 (11746705_a_at) / RFU VCAN (11755009_s_at) / Fold change /veh VCAN (11755009_s_at) / RFU RHOB (11743442_s_at) / Fold change /veh RHOB (11743442_s_at) / RFU RGS16 (11720943_a_at) / Fold change /veh RGS16 (11720943_a_at) / RFU RGS16 (11720944_at) / Fold change /veh RGS16 (11720944_at) / RFU, VPS4B / Fold change vs veh, VPS4B / RFU, CREB1 / Fold change vs veh, CREB1 / RFU, DNAJC13 / Fold change vs veh, DNAJC13 / RFU, GNAQ / Fold change vs veh, GNAQ / RFU, CDK5R1 / Fold change vs veh, CDK5R1 / RFU, ZRANB3 / Fold change vs veh, ZRANB3 / RFU, CUL4A / Fold change vs veh, CUL4A / RFU, CCNY / Fold change vs veh, CCNY / RFU, UFL1 / Fold change vs veh, UFL1 / RFU, COG3 / Fold change vs veh, COG3 / RFU, DIAPH2 / Fold change vs veh, DIAPH2 / RFU, SKA2 / Fold change vs veh, SKA2 / RFU, AFF3 / Fold change vs veh, AFF3 / RFU, LMF1 / Fold change vs veh, LMF1 / RFU, IPO11 / Fold change vs veh, IPO11 / RFU, DFFB / Fold change vs veh, DFFB / RFU, FOXP1 / Fold change vs veh, FOXP1 / RFU, CARD8 / Fold change vs veh, CARD8 / RFU, STRN3 / Fold change vs veh, STRN3 / RFU, ADK / Fold change vs veh, ADK / RFU, RASSF2 / Fold change vs veh, RASSF2 / RFU, WIPF1 / Fold change vs veh, WIPF1 / RFU, LARP1B / Fold change vs veh, LARP1B / RFU, RASA1 / Fold change vs veh, RASA1 / RFU, RB1 / Fold change vs veh, RB1 / RFU, PPFIA1 / Fold change vs veh, PPFIA1 / RFU, MAT2A / Fold change vs veh, MAT2A / RFU, CCT5 / Fold change vs veh, CCT5 / RFU, WDR92 / Fold change vs veh, WDR92 / RFU, CUX1 / Fold change vs veh, CUX1 / RFU, TTC7A / Fold change vs veh, TTC7A / RFU, TMEM135 / Fold change vs veh, TMEM135 / RFU, DEPTOR / Fold change vs veh, DEPTOR / RFU, CPM / Fold change vs veh, CPM / RFU, DNAJB6 / Fold change vs veh, DNAJB6 / RFU, CACNA2D3 / Fold change vs veh, CACNA2D3 / RFU, DTX4 / Fold change vs veh, DTX4 / RFU, TFCP2 / Fold change vs veh, TFCP2 / RFU, GMCL1 /// GMCL1P1 / Fold change vs veh, GMCL1 /// GMCL1P1 / RFU, AEBP2 / Fold change vs veh, AEBP2 / RFU, SNHG1 /// SNORD22 /// SNORD25 /// SNORD26 /// SNORD27 /// SNORD28 /// SNORD29 /// SNORD31 / Fold change vs veh, SNHG1 /// SNORD22 /// SNORD25 /// SNORD26 /// SNORD27 /// SNORD28 /// SNORD29 /// SNORD31 / Fold change (Aza/veh), C12orf56 (ProbeSet 11735607_a_at) / Fold change (ACY-1035/veh), C12orf56 (ProbeSet 11735607_a_at) / Fold change (Aza/veh), FGFR1OP (ProbeSet 11751329_s_at) / Fold change (ACY-1035/veh), FGFR1OP (ProbeSet 11751329_s_at) / Fold change (Aza/veh), VPS36 (ProbeSet 11739960_a_at) / Fold change (ACY-1035/veh), VPS36 (ProbeSet 11739960_a_at) / RFU SYPL1 (11715823_x_at) / Fold change /veh SYPL1 (11715823_x_at) / RFU IGFBP7 (11715501_s_at) / Fold change /veh IGFBP7 (11715501_s_at) / RFU REEP3 (11722064_at) / Fold change /veh REEP3 (11722064_at) / RFU IGLL1 (11728026_x_at) / Fold change /veh IGLL1 (11728026_x_at): dose or concentration left out as unconfirmed
Conditions: ProbeSet 11716891_at; LIST B

Nc1ncn([C@@H]2O[C@H](CO)[C@@H](O)[C@H]2O)c(=O)n1 [azacitidine]
RFU, C9orf123: 42.83 RFU
